Measurements as given in the NIST ThermoML archive (doi:10.1021/je0301500).

Assays:
[1] = 303.15 K; for surface tension liquid-gas: Ring tensiometer; for viscosity / mass density: 101.33 kPa, Liquid; for viscosity: Falling or rolling sphere viscometry; for mass density: Vibrating tube method
[2] = xn = mol fraction of the nth substance listed; details: 303.15 K; for mass density / viscosity: 101.33 kPa, Liquid; for mass density: Vibrating tube method; for surface tension liquid-gas: Ring tensiometer; for viscosity: Falling or rolling sphere viscometry

CCCC(=O)OCC [ethyl butanoate]
[1]
Details	mass density [kg/m3]	surface tension liquid-gas [mN/m]	viscosity [mPa·s]
–	868.21	23.4	0.591

CO [methanol] + O
[2]
Details	mass density [kg/m3]
x2 = 0.1031	799.74
x2 = 0.2055	818.52
x2 = 0.3014	836.97
x2 = 0.4013	857.06
x2 = 0.4994	877.48

CO [methanol]
[1]
Details	mass density [kg/m3]	surface tension liquid-gas [mN/m]	viscosity [mPa·s]
–	781.91	21.68	0.504

CCCC(=O)OCC [ethyl butanoate] + O
[2]
Details	mass density [kg/m3]	surface tension liquid-gas [mN/m]	viscosity [mPa·s]
x2 = 0.0128	–	–	0.587
x2 = 0.018	–	23.46	–
x2 = 0.019	868.19	–	–
x2 = 0.0319	–	–	0.584
x2 = 0.033	868.46	–	–
x2 = 0.039	868.71	–	0.586
x2 = 0.041	–	23.53	–
x2 = 0.0488	–	–	0.584
x2 = 0.055	–	23.6	–
x2 = 0.056	868.98	–	–
x2 = 0.0588	–	–	0.597

CCCC(=O)OCC [ethyl butanoate] + CO
[2]
Details	mass density [kg/m3]	surface tension liquid-gas [mN/m]	viscosity [mPa·s]
x1 = 0.05	–	21.86	–
x1 = 0.101	–	22.03	–
x1 = 0.104	–	–	0.511
x1 = 0.15	–	22.22	–
x1 = 0.1993	820.83	–	–
x1 = 0.2	–	22.36	–
x1 = 0.2036	–	–	0.517
x1 = 0.299	–	22.65	–
x1 = 0.3	832.61	–	–
x1 = 0.3147	–	–	0.522
x1 = 0.4	841.45	22.85	–
x1 = 0.4147	–	–	0.529
x1 = 0.449	845.03	–	–
x1 = 0.474	846.71	–	–
x1 = 0.496	–	22.99	–
x1 = 0.4995	848.3	–	–
x1 = 0.5064	–	–	0.535
x1 = 0.5997	853.94	–	–
x1 = 0.605	–	23.12	–
x1 = 0.6226	–	–	0.543
x1 = 0.65	856.33	–	–
x1 = 0.6976	–	–	0.551
x1 = 0.7	–	23.18	–
x1 = 0.7495	860.43	–	–
x1 = 0.8	–	23.29	–
x1 = 0.8054	–	–	0.565
x1 = 0.883	–	23.35	–
x1 = 0.899	865.48	–	–
x1 = 0.9001	865.54	–	–
x1 = 0.9004	–	–	0.577
x1 = 0.9465	866.88	–	–
